# Laboratory results as given in the supplement of paper PMC10307832.
# How the values were obtained:
# Test in all cases: relative viability (nuclei count vs DMSO), 5 days (fraction); higher = more cells survive
# PC-3 [JPC-3] = test system: PC-3 [JPC-3]
# Method in brief: (§1)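 Relative viability equals treated-well nuclei counts divided by vehicle-well nuclei counts. Counts came from 4× images of lung cancer cell lines grown in 1536-well plates for 5 days after pin-tool dosing on the day after seeding. Dosing used one drug alone or a fixed anchor-drug dose plus five library-drug doses (not always all listed) in √10 steps, and values are medians of duplicate plates.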
# A-427 = test system: A-427
# Method in brief: as §1
# NCI-H1915 = test system: NCI-H1915
# Method in brief: as §1
# NCI-H2347 = test system: NCI-H2347
# Method in brief: as §1
# SK-LU-1 = test system: SK-LU-1
# Method in brief: as §1
# NCI-H1975 = test system: NCI-H1975
# Method in brief: as §1
# NCI-H358 = test system: NCI-H358
# Method in brief: as §1
# HCC-78 = test system: HCC-78
# Method in brief: as §1
# NCI-H1734 = test system: NCI-H1734
# Method in brief: as §1
# LXF-289 = test system: LXF-289
# Method in brief: as §1
# NCI-H2126 = test system: NCI-H2126
# Method in brief: as §1
# NCI-H1755 = test system: NCI-H1755
# Method in brief: as §1
# HCC-15 = test system: HCC-15
# Method in brief: as §1
# RERF-LC-KJ = test system: RERF-LC-KJ
# Method in brief: as §1
# LC-2-ad = test system: LC-2-ad
# Method in brief: as §1
# NCI-H647 = test system: NCI-H647
# Method in brief: as §1
# HOP-62 = test system: HOP-62
# Method in brief: as §1
# SW 1573 = test system: SW 1573
# Method in brief: as §1
# NCI-H1792 = test system: NCI-H1792
# Method in brief: as §1
# NCI-H2228 = test system: NCI-H2228
# Method in brief: as §1
smiles,measurement,setting,value
Cc1sc2c(c1C)C(c1ccc(Cl)cc1)=N[C@@H](CC(=O)OC(C)(C)C)c1nnc(C)n1-2 [JQ1] + CS(=O)(=O)CCNCc1ccc(-c2ccc3ncnc(Nc4ccc(OCc5cccc(F)c5)c(Cl)c4)c3c2)o1 [Lapatinib] (partner 2 µM),relative viability,PC-3 [JPC-3]; first compound 0.04 µM,0.488
same,relative viability,PC-3 [JPC-3]; first compound 0.1265 µM,0.529
same,relative viability,PC-3 [JPC-3]; first compound 0.4 µM,0.432
same,relative viability,PC-3 [JPC-3]; first compound 1.265 µM,0.412
same,relative viability,PC-3 [JPC-3]; first compound 4 µM,0.411
same,relative viability,A-427; first compound 0.04 µM,0.925
same,relative viability,A-427; first compound 0.1265 µM,0.916
same,relative viability,A-427; first compound 0.4 µM,1.08
same,relative viability,A-427; first compound 1.265 µM,1.02
same,relative viability,A-427; first compound 4 µM,0.696
same,relative viability,NCI-H1915; first compound 0.04 µM,0.976
same,relative viability,NCI-H1915; first compound 0.1265 µM,0.574
same,relative viability,NCI-H1915; first compound 0.4 µM,0.917
same,relative viability,NCI-H1915; first compound 1.265 µM,0.582
same,relative viability,NCI-H1915; first compound 4 µM,0.315
same,relative viability,NCI-H2347; first compound 0.04 µM,0.934
same,relative viability,NCI-H2347; first compound 0.1265 µM,0.623
same,relative viability,NCI-H2347; first compound 0.4 µM,0.831
same,relative viability,NCI-H2347; first compound 1.265 µM,0.701
same,relative viability,NCI-H2347; first compound 4 µM,0.679
same,relative viability,SK-LU-1; first compound 0.04 µM,0.891
same,relative viability,SK-LU-1; first compound 0.1265 µM,0.709
same,relative viability,SK-LU-1; first compound 0.4 µM,0.838
same,relative viability,SK-LU-1; first compound 1.265 µM,0.388
same,relative viability,SK-LU-1; first compound 4 µM,0.271
same,relative viability,NCI-H1975; first compound 0.04 µM,0.85
same,relative viability,NCI-H1975; first compound 0.1265 µM,0.551
same,relative viability,NCI-H1975; first compound 0.4 µM,0.565
same,relative viability,NCI-H1975; first compound 1.265 µM,0.351
same,relative viability,NCI-H1975; first compound 4 µM,0.333
same,relative viability,NCI-H358; first compound 0.04 µM,0.467
same,relative viability,NCI-H358; first compound 0.1265 µM,0.494
same,relative viability,NCI-H358; first compound 0.4 µM,0.647
same,relative viability,NCI-H358; first compound 1.265 µM,0.561
same,relative viability,NCI-H358; first compound 4 µM,0.577
same,relative viability,HCC-78; first compound 0.04 µM,0.861
same,relative viability,HCC-78; first compound 0.1265 µM,0.53
same,relative viability,HCC-78; first compound 0.4 µM,0.493
same,relative viability,HCC-78; first compound 1.265 µM,0.391
same,relative viability,HCC-78; first compound 4 µM,0.28
same,relative viability,NCI-H1734; first compound 0.04 µM,1.08
same,relative viability,NCI-H1734; first compound 0.1265 µM,0.908
same,relative viability,NCI-H1734; first compound 0.4 µM,1.03
same,relative viability,NCI-H1734; first compound 1.265 µM,0.657
same,relative viability,NCI-H1734; first compound 4 µM,1.04
same,relative viability,LXF-289; first compound 0.04 µM,0.915
same,relative viability,LXF-289; first compound 0.1265 µM,0.862
same,relative viability,LXF-289; first compound 0.4 µM,0.917
same,relative viability,LXF-289; first compound 1.265 µM,0.851
same,relative viability,LXF-289; first compound 4 µM,0.704
same,relative viability,NCI-H2126; first compound 0.04 µM,0.759
same,relative viability,NCI-H2126; first compound 0.1265 µM,0.746
same,relative viability,NCI-H2126; first compound 0.4 µM,0.755
same,relative viability,NCI-H2126; first compound 1.265 µM,0.604
same,relative viability,NCI-H2126; first compound 4 µM,0.68
same,relative viability,NCI-H1755; first compound 0.04 µM,1.06
same,relative viability,NCI-H1755; first compound 0.1265 µM,0.735
same,relative viability,NCI-H1755; first compound 0.4 µM,1.05
same,relative viability,NCI-H1755; first compound 1.265 µM,0.853
same,relative viability,NCI-H1755; first compound 4 µM,0.607
same,relative viability,HCC-15; first compound 0.04 µM,0.778
same,relative viability,HCC-15; first compound 0.4 µM,0.85
same,relative viability,HCC-15; first compound 1.265 µM,0.655
same,relative viability,HCC-15; first compound 4 µM,0.592
same,relative viability,RERF-LC-KJ; first compound 0.04 µM,0.807
same,relative viability,RERF-LC-KJ; first compound 0.1265 µM,0.856
same,relative viability,RERF-LC-KJ; first compound 0.4 µM,0.89
same,relative viability,RERF-LC-KJ; first compound 1.265 µM,0.781
same,relative viability,RERF-LC-KJ; first compound 4 µM,0.595
same,relative viability,LC-2-ad; first compound 0.04 µM,0.92
same,relative viability,LC-2-ad; first compound 0.1265 µM,0.436
same,relative viability,LC-2-ad; first compound 0.4 µM,0.409
same,relative viability,LC-2-ad; first compound 1.265 µM,0.158
same,relative viability,LC-2-ad; first compound 4 µM,0.155
same,relative viability,NCI-H647; first compound 0.04 µM,0.997
same,relative viability,NCI-H647; first compound 0.1265 µM,0.509
same,relative viability,NCI-H647; first compound 0.4 µM,0.439
same,relative viability,NCI-H647; first compound 1.265 µM,0.104
same,relative viability,NCI-H647; first compound 4 µM,0.0821
same,relative viability,HOP-62; first compound 0.04 µM,1.07
same,relative viability,HOP-62; first compound 0.1265 µM,0.724
same,relative viability,HOP-62; first compound 0.4 µM,0.636
same,relative viability,HOP-62; first compound 1.265 µM,0.241
same,relative viability,HOP-62; first compound 4 µM,0.126
same,relative viability,SW 1573; first compound 0.04 µM,1.13
same,relative viability,SW 1573; first compound 0.1265 µM,0.886
same,relative viability,SW 1573; first compound 0.4 µM,0.881
same,relative viability,SW 1573; first compound 1.265 µM,0.61
same,relative viability,SW 1573; first compound 4 µM,0.512
same,relative viability,NCI-H1792; first compound 0.04 µM,0.947
same,relative viability,NCI-H1792; first compound 0.4 µM,0.916
same,relative viability,NCI-H1792; first compound 1.265 µM,0.896
same,relative viability,NCI-H1792; first compound 4 µM,0.688
same,relative viability,NCI-H2228; first compound 0.04 µM,0.902
same,relative viability,NCI-H2228; first compound 0.1265 µM,0.876
same,relative viability,NCI-H2228; first compound 0.4 µM,0.751
same,relative viability,NCI-H2228; first compound 1.265 µM,0.374
same,relative viability,NCI-H2228; first compound 4 µM,0.327
